Earlier results in patent US6506938B1, “Process for the purifying of iopamidol” (Bracco International B.V., priority 1993, dated 2003).
Read-outs that look alike come from different tables or passages of the source.

Key:
[1] = British patent no. 1,472,050
[2] = Boll. Chim. Farm., 120, 639, (1981)

solubility in ethanol ([1]; ethanol, room temperature): about 10%
solubility in methanol ([1]; methanol): practically unlimited solubility
solubility in water ([1]; water): dissolves very easily
solubility in benzene ([2]; benzene): practically insoluble
solubility in chloroform ([2]; chloroform): practically insoluble
solubility in diethylether ([2]; diethylether): practically insoluble
solubility in ethanol ([2]; ethanol): practically insoluble
solubility in methanol ([2]; methanol): only slightly soluble
solubility in water ([2]; water): very soluble
Structure (SMILES): C[C@H](O)C(=O)Nc1c(I)c(C(=O)NC(CO)CO)c(I)c(C(=O)NC(CO)CO)c1I [Iopamidol, L-5-α-hydroxypropionylamino-2,4,6-triiodo-isophthalic acid bis-(1,3-dihydroxyisopropylamide)]
